Results reported in PMC7201532, “The role of Piper chaba Hunt. and its pure compound, piperine, on TRPV1 activation and adjuvant effect” (BMC Complementary Medicine and Therapies, 2020).

Biological target: TRPV1 (Homo sapiens, UniProt Q8NER1)
Test: Fluo-4 calcium imaging in HEK293 cells stably expressing human TRPV1; no effect in control T-REx HEK293 cells; blocked by AMG9810
Type: cell-based

Sequence of TRPV1 (Q8NER1 whole entry): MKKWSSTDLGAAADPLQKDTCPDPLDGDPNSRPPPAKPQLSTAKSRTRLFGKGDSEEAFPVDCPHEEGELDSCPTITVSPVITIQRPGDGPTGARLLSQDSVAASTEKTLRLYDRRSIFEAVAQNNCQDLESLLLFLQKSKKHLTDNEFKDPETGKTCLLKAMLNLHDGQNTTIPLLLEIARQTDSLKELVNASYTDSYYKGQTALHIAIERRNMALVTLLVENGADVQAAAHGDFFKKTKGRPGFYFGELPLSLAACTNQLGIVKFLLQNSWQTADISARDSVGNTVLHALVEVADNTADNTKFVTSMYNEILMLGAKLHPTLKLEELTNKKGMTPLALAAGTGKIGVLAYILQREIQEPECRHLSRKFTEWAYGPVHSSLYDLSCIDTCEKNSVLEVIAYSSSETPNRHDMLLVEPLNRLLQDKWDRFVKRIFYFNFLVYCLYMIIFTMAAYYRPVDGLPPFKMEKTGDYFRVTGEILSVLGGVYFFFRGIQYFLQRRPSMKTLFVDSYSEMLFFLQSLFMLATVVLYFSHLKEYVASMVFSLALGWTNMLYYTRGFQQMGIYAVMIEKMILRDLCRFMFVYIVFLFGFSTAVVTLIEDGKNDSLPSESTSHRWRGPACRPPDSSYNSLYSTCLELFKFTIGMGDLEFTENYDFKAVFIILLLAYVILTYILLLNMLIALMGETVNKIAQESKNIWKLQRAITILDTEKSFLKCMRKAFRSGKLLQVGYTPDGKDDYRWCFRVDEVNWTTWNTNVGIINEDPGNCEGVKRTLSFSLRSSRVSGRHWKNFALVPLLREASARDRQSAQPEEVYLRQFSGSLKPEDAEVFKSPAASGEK

In the case of O=C(/C=C/C=C/c1ccc2c(c1)OCO2)N1CCCCC1 [Piperine], the EC50 is reported as 1080 nM.
